Test results as given in ChEMBL document CHEMBL1147170, “Synthesis and biological evaluation of two glycerolipidic prodrugs of didanosine for direct lymphatic delivery against HIV” (Bioorg Med Chem Lett, 2007).

How the values were obtained:
PBMC = experiment: (§1) Cytotoxicity against phytohemagglutininin-activated human PBMC after 7 days by MTT assay; format: cell-based; conditions: pbmc, 168 h
[1] = as §1; format: cell-based; conditions: phytohemagglutinin-activated PBMC, read-out: CD50
[2] = test system: Human immunodeficiency virus 1; experiment: Antiviral activity against HIV1 LAI activity in phytohemagglutininin-activated human PBMC assessed as viral replication after 7 days; format: functional; conditions: for EC50: Human immunodeficiency virus 1, LAI, 168 h, read-out: ED50 (the source's name)

Row | EC50 [2] [µM] | SMILES | CD90 (PBMC) [µM] | CC50 at 168 h [1] [µM] | ED90 [2] [µM]
1 | 2.8 | CCCCCCCCCCCCCCCC(=O)OCC(COC(=O)CCCCCCCCCCCCCCC)OC(=O)CCCC(=O)OC[C@@H]1CC[C@H](n2cnc3c(=O)[nH]cnc32)O1 | > 12 | > 12 | >12
2 | 1.2 | O=c1[nH]cnc2c1ncn2[C@H]1CC[C@@H](CO)O1 [DIDANOSINE] | > 50 | 40 | 4.8
3 | 28.5 | CCCCCCCCCCCCCCCC(=O)OCC(COC(=O)CCCCCCCCCCCCCCC)OC(=O)CCCCCOP(=O)(O)OC[C@@H]1CC[C@H](n2cnc3c(=O)[nH]cnc32)O1 | > 50 | > 50 | >50
